pIC50: −log10 of the molar value.

Consider 1 compound from patent publication US12398117B2, “Heteroarylamidopyridinol derivative and pharmaceutical composition comprising same as active ingredient for prevention or treatment of autoimmune disease” (INNOVO THERAPEUTICS INC., priority 2019, dated 2025).

Assay [1] has as its system adhesion of intestinal epithelial cells (HT-29) and monocytic cells (U937) induced by IL-6. Nature of the assay: Inhibition of IL-6-induced adhesion of monocytes and intestinal epithelial cells. In kind it is cell-based, human. Particulars: Homo sapiens. A digest of the protocol:
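HT-29 monolayers pretreated 1 h with test drug in 1% FBS medium, then co-incubated 3 h at 37 °C with BCECF-labeled U937 monocytes plus IL-6 (10 ng/mL). After removal of non-adherent cells, bound monocytes quantified by BCECF fluorescence of Triton X-100 lysates.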

Assay [2] has as its system TNBS-induced inflammatory bowel disease rat model. Kind of assay: Oral efficacy in TNBS-induced inflammatory bowel disease rat model. In kind it is in vivo, Sprague Dawley rats. The method, then: Sprague Dawley rats aged 7-8 weeks were purchased from OrientBio (Korea), stabilized with general solid feed for 3 days, and then used in this experiment. Feed and water were freely supplied during the experiment period, and the temperature of the breeding room was maintained at 25±1° C. and the relative humidity at 50±10%. Lighting management was controlled in a 12-hour light-dark cycle by an automatic lighting controller.
After anesthetizing rats that had been fasted for 24 hours with diethyl ether, 0.8 mL of 5% TNBS diluted with 50v/v % ethanol was slowly injected into the lumen of the colon using a 1 mL syringe connected to a polyethylene catheter, and then, the rats were left standing for 60 seconds in an inverted position in order to prevent 5% TNBS from leaking into the anus. For the control group, only vehicle [50v/v % ethanol] was injected in the same manner as in the other groups (Thapa et al., 2008).
In order to investigate the effect of the drug, the drug was administered at a constant time every day for 5 days from the day after the TNBS treatment.
Changes in body weight of each rat were observed from the fasting stage to the TNBS administration and drug administration process using a digital mass meter.
The colon of the rat was extracted, and the tissue 5-6 cm away from the anus was cut into a length of 1 cm, and the weight of the tissue was measured.
The weighed rat tissues were fixed with 4% paraformaldehyde solution, and then transferred to 30% sucrose solution. When the tissues subside, they were taken out and cut into […] thick using a cryomicrotome (Microm HM 450, Thermo Fisher Scientific, Germany) and stored in a cryopreservation solution. After washing the tissue section with KPBS, the tissue section was attached to a slide glass, dried, and then stained with hematoxylin & Eosin and observed under a microscope.

The subject of assay [3] is collagen-induced rheumatoid arthritis animal model. Nature of the assay: Oral efficacy in collagen-induced rheumatoid arthritis (CIA) mouse model. The class given is in vivo, DBA/1J mice. The method, then:
12-week-old normal male mice and arthritis-induced DBA/1J mice were purchased from Central Lab. Animal Inc [To induce arthritis, DBA/1J mice were sensitized by injecting a mixed solution of Complete Freund's Adjuvant (CFA; DIFCO, Detroit, MI) and Bovine Type II collagen (1:1, v/v) intradermally at the pinna base at 8 weeks of age, and then, secondary sensitization was performed by intradermal injection at the tail head at 11 weeks of age]. The purchased arthritis mice were acclimatized to the laboratory environment for a week, and then oral administration of the drug was started.
Visual observation of arthritic lesions was performed using the following scores based on a reference (Barnett et al., 1998).
Therefore, the highest score for arthritic lesions was 16 per mouse.
The hind paw thickness, which is one of the pathological indices of rheumatoid arthritis, was measured using a caliper.
The right hind leg of each mouse was extracted, and all skin and muscles were removed, leaving only the bones and joints. The hind leg was fixed in 4% paraformaldehyde solution for 2 days, then immersed in 10% formic acid for 5 days to decalcify, and then immersed in 30% sucrose solution. When the tissue subsided, the articular tissue was cut into […] thick using a cryomicrotome (Microm HM 450, Thermo Fisher Scientific, Germany) and stored in a cryopreservation solution. Staining was performed using the stored tissue sections. After attaching the tissue sections to the slide glass, they were hydrated with 100%, 95%, 70%, and 50% ethanol solutions, and some were stained with safranin and others were stained with hematoxylin/eosin. For safranin staining, the tissue sections were first stained with 0.1% fast green solution, washed with 1% acetic acid solution, and then stained with 1% safranin solution. Thereafter, the tissue sections were dehydrated by immersing in ethanol solutions in the reverse order of hydration, and then preserved in xylene solution and mounting solution, and photographed under a microscope. Hematoxylin/eosin staining was performed in the same manner as in the colon tissue staining. The tissue sections were dehydrated, preserved in xylene solution and mounting solution, and observed under a microscope.
The degree of microscopic tissue damage of the stained articular tissue was measured using the following scores.
After the spleen and draining lymph nodes of the mice were extracted, the number of immune cells was counted. To confirm the distribution of Th1 and Th17 cells, the immune cells obtained from each organ were stimulated using PMA/Ionomycin and Golgi stop.
After staining using an anti-IFN-γ antibody that can identify Th1 cells, an anti-IL-17 antibody that can identify Th17 cells, and an anti-CD8 antibody that can identify cytotoxic T cells, the proportion of inflammatory cells among the total immune cells was confirmed using flow cytometry.

Where [4] appears, read: 0.3 mg/kg, dose-dependence test (Table 7).
The mark [5] stands for this setting: 1 mg/kg, dose-dependence test (Table 7).
The mark [6] stands for this setting: 3 mg/kg, dose-dependence test (Table 7).
Setting [7] is: 10 mg/kg, dose-dependence test (Table 7).
[8] abbreviates: oral 1 mg/kg, 5 days, fixed-dose test (Table 6).

`Cc1ccc2[nH]c(C(=O)Nc3nc(C)c(O)c(C)c3C)cc2c1` [Compound X-09, N-(5-hydroxy-3,4,6-trimethylpyridin-2-yl)-5-methyl-1H-indole-2-carboxamide]: the inhibition at 1 µM in assay [1] (3 h, test drug 1 μM, IL-6 10 ng/mL, HT-29/U937, read-out: inhibitory activity (%)) came to 71.7%. In assay [1] (inhibition of adhesion by IL-6), this compound gave a negative-log IC50 (pIC50) of 6.47. The “Body weight recovery rate (%)” value came out at 17.2% in assay [2] (setting [4]); 69.3% in assay [2] (setting [5]); 74.6% in assay [2] (setting [6]); 80.8% in assay [2] (setting [7]); 72.7% in assay [2] (setting [8]). Moreover, the “Intestinal weight recovery rate (%)” value in assay [2] (setting [4]) is 47.0%; in assay [2] (setting [5]), 85.2%; in assay [2] (setting [6]), 91.7%; in assay [2] (setting [7]) it was 98.9%; in assay [2] (setting [8]), 94.0%. The “Mucosal damage recovery of rat colon (hematoxylin-eosin score)” value in assay [2] (X-09 dose range, FIG. 1) is listed as “dose-dependent mucosal damage recovery activity”. Besides, in assay [2] (after 5 days of drug administration, sulfasalazine 300 mg/kg, X-09 0.3-10 mg/kg), the “Morphological observation of colon (visual symptoms, adhesions, congestion)” value is “dose-dependent therapeutic activity for enteritis”. Further, in assay [3] (after 35 days of drug administration, FIG. 8B), the “number of inflammatory cells Th1 and Th17 and activated CD8 cells in spleen” value is “dose-dependent decrease”. Moreover, in assay [3] (after 35 days of drug administration, FIG. 8C), the “number of inflammatory cells Th1 and Th17 and activated CD8 cells in draining lymph node” value is reported as “dose-dependent effect”. The compound further yielded a hind paw thickness in assay [3] (oral 50 mg/kg, 35th day of drug administration) of 1.70 mm. Also, the arthritis score in assay [3] (oral 50 mg/kg, 35th day of drug administration, maximum score 16) came out at 7.2. In addition, the “degree of arthritis (visual observation score)” value in assay [3] (oral, up to 35 days, FIG. 5A) was “significantly improved dose dependently”.

Usually pIC50 stands for the negative decadic logarithm of the IC50, by convention in mol/L. A low value points to a high IC50.
